Reference: patent publication US7709636B2, “Pyrazole sulfonylurea compound and herbicide” (Nissan Chemical Industries, Ltd., priority 2004, dated 2010)

Key:
[1] = system: Abutilon avicennae; test: Herbicidal effect test by foliage treatment; format: in vivo; details: 1.6 g/a; foliage treatment after growth of 14 days; 3 weeks after treatment
Method in brief: (§1)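 Post-emergence foliar spray: plants raised 14 d in greenhouse (25–30° C) from seed in sterilized diluvial soil, sprayed with diluted wettable powder formulation, injury rated visually at 3 wk.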

[2] = system: corn (Zea mays); test: Herbicidal effect test by foliage treatment; format: in vivo; details: 1.6 g/a; foliage treatment after growth of 14 days; 3 weeks after treatment
Method in brief: as §1

[3] = system: Avena fatua; test: Herbicidal effect test by foliage treatment; format: in vivo; details: 1.6 g/a; foliage treatment after growth of 14 days; 3 weeks after treatment
Method in brief: as §1

[4] = system: Chenopodium album; test: Herbicidal effect test by foliage treatment; format: in vivo; details: 1.6 g/a; foliage treatment after growth of 14 days; 3 weeks after treatment
Method in brief: as §1

[5] = system: Black-grass; test: Herbicidal effect test by foliage treatment; format: in vivo; details: 1.6 g/a; foliage treatment after growth of 14 days; 3 weeks after treatment
Method in brief: as §1

[6] = system: Echinochloa crus-galli; test: Herbicidal effect test by foliage treatment; format: in vivo; details: 1.6 g/a; foliage treatment after growth of 14 days; 3 weeks after treatment
Method in brief: as §1

[7] = system: Beta vulgaris (beet); test: Herbicidal effect test by foliage treatment; format: in vivo; details: 1.6 g/a; foliage treatment after growth of 14 days; 3 weeks after treatment
Method in brief: as §1

[8] = system: Triticum aestivum (wheat); test: Herbicidal effect test by foliage treatment; format: in vivo; details: 1.6 g/a; foliage treatment after growth of 14 days; 3 weeks after treatment
Method in brief: as §1

[9] = system: soybean (Glycine max); test: Herbicidal effect test by foliage treatment; format: in vivo; details: 1.6 g/a; foliage treatment after growth of 14 days; 3 weeks after treatment
Method in brief: as §1

[10] = system: Polygonum blumei; test: Herbicidal effect test by foliage treatment; format: in vivo; details: 1.6 g/a; foliage treatment after growth of 14 days; 3 weeks after treatment
Method in brief: as §1

[11] = system: Digitaria adscendes; test: Herbicidal effect test by foliage treatment; format: in vivo; details: 1.6 g/a; foliage treatment after growth of 14 days; 3 weeks after treatment
Method in brief: as §1

[12] = system: Amaranthus retroflexus; test: Herbicidal effect test by foliage treatment; format: in vivo; details: 1.6 g/a; foliage treatment after growth of 14 days; 3 weeks after treatment
Method in brief: as §1

[13] = system: Ambrosia elatior; test: Herbicidal effect test by foliage treatment; format: in vivo; details: 1.6 g/a; foliage treatment after growth of 14 days; 3 weeks after treatment
Method in brief: as §1

[14] = system: Setaria viridis; test: Herbicidal effect test by foliage treatment; format: in vivo; details: 1.6 g/a; foliage treatment after growth of 14 days; 3 weeks after treatment
Method in brief: as §1

[15] = system: Stellaria media; test: Herbicidal effect test by foliage treatment; format: in vivo; details: 1.6 g/a; foliage treatment after growth of 14 days; 3 weeks after treatment
Method in brief: as §1

[16] = system: Echinochloa crus-galli; test: Herbicidal effect test in submerged condition by treatment before weed-generation (1); format: in vivo; details: 0.64 g/a, water surface treated on day of sowing, 3 weeks after treatment
Method in brief: (§2)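 Pre-emergence water-surface application of diluted wettable-powder formulation at a predetermined rate, same day as sowing, in flooded alluvial soil (4 cm water) with transplanted 2.5-leaf rice. Grown 3 weeks at 25 to 30° C in greenhouse; rated 0–5 by herbicidal rate.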

[17] = system: Scirpus juncoides; test: as above; format: in vivo; details: 0.64 g/a, water surface treated on day of sowing, 3 weeks after treatment
Method in brief: as §2

[18] = system: Monochoria vaginalis; test: as above; format: in vivo; details: 0.64 g/a, water surface treated on day of sowing, 3 weeks after treatment
Method in brief: as §2

[19] = system: direct sown rice; test: Herbicidal effect test by soil treatment; format: in vivo, Oryza sativa; details: 1.6 g/a, 3 weeks after treatment
Method in brief: (§3)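 Pre-emergence soil application: wettable powder formulation, water-diluted to set dose, sprayed evenly over soil surface after sowing; seeds under ~1.5 cm sterilized diluvial soil. Effect rated at 3 wk by criteria scale.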

[20] = system: direct sown rice; test: Herbicidal effect test by foliage treatment; format: in vivo, Oryza sativa; details: 1.6 g/a; foliage treatment after growth of 14 days; 3 weeks after treatment
Method in brief: as §1

[21] = system: Abutilon avicennae; test: Herbicidal effect test by soil treatment; format: in vivo; details: 1.6 g/a, 3 weeks after treatment
Method in brief: as §3

[22] = system: corn (Zea mays); test: Herbicidal effect test by soil treatment; format: in vivo; details: 1.6 g/a, 3 weeks after treatment
Method in brief: as §3

[23] = system: Avena fatua; test: Herbicidal effect test by soil treatment; format: in vivo; details: 1.6 g/a, 3 weeks after treatment
Method in brief: as §3

[24] = system: Chenopodium album; test: Herbicidal effect test by soil treatment; format: in vivo; details: 1.6 g/a, 3 weeks after treatment
Method in brief: as §3

[25] = system: Black-grass; test: Herbicidal effect test by soil treatment; format: in vivo; details: 1.6 g/a, 3 weeks after treatment
Method in brief: as §3

[26] = system: Echinochloa crus-galli; test: Herbicidal effect test by soil treatment; format: in vivo; details: 1.6 g/a, 3 weeks after treatment
Method in brief: as §3

[27] = system: Beta vulgaris (beet); test: Herbicidal effect test by soil treatment; format: in vivo; details: 1.6 g/a, 3 weeks after treatment
Method in brief: as §3

[28] = system: Triticum aestivum (wheat); test: Herbicidal effect test by soil treatment; format: in vivo; details: 1.6 g/a, 3 weeks after treatment
Method in brief: as §3

[29] = system: soybean (Glycine max); test: Herbicidal effect test by soil treatment; format: in vivo; details: 1.6 g/a, 3 weeks after treatment
Method in brief: as §3

[30] = system: Polygonum blumei; test: Herbicidal effect test by soil treatment; format: in vivo; details: 1.6 g/a, 3 weeks after treatment
Method in brief: as §3

[31] = system: Digitaria adscendes; test: Herbicidal effect test by soil treatment; format: in vivo; details: 1.6 g/a, 3 weeks after treatment
Method in brief: as §3

[32] = system: Amaranthus retroflexus; test: Herbicidal effect test by soil treatment; format: in vivo; details: 1.6 g/a, 3 weeks after treatment
Method in brief: as §3

[33] = system: Ambrosia elatior; test: Herbicidal effect test by soil treatment; format: in vivo; details: 1.6 g/a, 3 weeks after treatment
Method in brief: as §3

[34] = system: Setaria viridis; test: Herbicidal effect test by soil treatment; format: in vivo; details: 1.6 g/a, 3 weeks after treatment
Method in brief: as §3

[35] = system: Stellaria media; test: Herbicidal effect test by soil treatment; format: in vivo; details: 1.6 g/a, 3 weeks after treatment
Method in brief: as §3

[36] = system: Echinochloa crus-galli; test: Herbicidal effect test in submerged condition by treatment during weed-growth stage (1); format: in vivo; details: 0.64 g/a, treated at 1st to 2nd leaf stage, 3 weeks after treatment
Method in brief: (§4)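 Paddy-soil pots flooded to 4 cm water depth were sown and grown in a greenhouse at 25 to 30° C until weeds reached 1st to 2nd leaf stage. A wettable powder diluted in water to a predetermined formulation amount was applied to the water surface. Herbicidal effect was scored 3 weeks after treatment against set criteria.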

[37] = system: Scirpus juncoides; test: as above; format: in vivo; details: 0.64 g/a, treated at 1st to 2nd leaf stage, 3 weeks after treatment
Method in brief: as §4

[38] = system: Monochoria vaginalis; test: as above; format: in vivo; details: 0.64 g/a, treated at 1st to 2nd leaf stage, 3 weeks after treatment
Method in brief: as §4

Structure (SMILES): COc1cc(OC)nc(NC(=O)NS(=O)(=O)c2c(C3=NOCC(C)(CI)O3)c(C)nn2C)n1 (centres unmarked) [Compound 8, N-((4,6-dimethoxypyrimidin-2-yl)aminocarbonyl)-4-(5-iodomethyl-5-methyl-5H,6H-1,4,2-dioxadin-3-yl)-1,3-dimethylpyrazole-5-sulfonamide]
- herbicidal effect, H: Abutilon avicennae [1]: 5 (Herbicidal rate 90% or more (almost complete death))
- herbicidal effect, b: corn (Zea mays) [2]: 4 (Herbicidal rate 70% or more and less than 90%)
- herbicidal effect, F: Avena fatua [3]: 1 (Herbicidal rate 5% or more and less than 20%)
- herbicidal effect, K: Chenopodium album [4]: 4 (Herbicidal rate 70% or more and less than 90%)
- herbicidal effect, G: Black-grass [5]: 0 (Herbicidal rate 5% or less (little effect))
- herbicidal effect, A: Echinochloa crus-galli [6]: 4 (Herbicidal rate 70% or more and less than 90%)
- herbicidal effect, f: Beta vulgaris (beet) [7]: 4 (Herbicidal rate 70% or more and less than 90%)
- herbicidal effect, e: Triticum aestivum (wheat) [8]: 1 (Herbicidal rate 5% or more and less than 20%)
- herbicidal effect, c: soybean (Glycine max) [9]: 4 (Herbicidal rate 70% or more and less than 90%)
- herbicidal effect, L: Polygonum blumei [10]: 4 (Herbicidal rate 70% or more and less than 90%)
- herbicidal effect, D: Digitaria adscendes [11]: 3 (Herbicidal rate 40% or more and less than 70%)
- herbicidal effect, J: Amaranthus retroflexus [12]: 4 (Herbicidal rate 70% or more and less than 90%)
- herbicidal effect, I: Ambrosia elatior [13]: 4 (Herbicidal rate 70% or more and less than 90%)
- herbicidal effect, E: Setaria viridis [14]: 4 (Herbicidal rate 70% or more and less than 90%)
- herbicidal effect, M: Stellaria media [15]: 4 (Herbicidal rate 70% or more and less than 90%)
- herbicidal effect, A: Echinochloa crus-galli [16]: 3 (Herbicidal rate 40% or more and less than 70%)
- herbicidal effect, B: Scirpus juncoides [17]: 4 (Herbicidal rate 70% or more and less than 90%)
- herbicidal effect, C: Monochoria vaginalis [18]: 5 (Herbicidal rate 90% or more (almost complete death))
- herbicidal effect, d: direct sown rice [19]: 2 (Herbicidal rate 20% or more and less than 40%)
- herbicidal effect, d: direct sown rice [20]: 1 (Herbicidal rate 5% or more and less than 20%)
- herbicidal effect, H: Abutilon avicennae [21]: 0 (Herbicidal rate 5% or less (little effect))
- herbicidal effect, b: corn (Zea mays) [22]: 0 (Herbicidal rate 5% or less (little effect))
- herbicidal effect, F: Avena fatua [23]: 0 (Herbicidal rate 5% or less (little effect))
- herbicidal effect, K: Chenopodium album [24]: 2 (Herbicidal rate 20% or more and less than 40%)
- herbicidal effect, G: Black-grass [25]: 3 (Herbicidal rate 40% or more and less than 70%)
- herbicidal effect, A: Echinochloa crus-galli [26]: 1 (Herbicidal rate 5% or more and less than 20%)
- herbicidal effect, f: Beta vulgaris (beet) [27]: 2 (Herbicidal rate 20% or more and less than 40%)
- herbicidal effect, e: Triticum aestivum (wheat) [28]: 1 (Herbicidal rate 5% or more and less than 20%)
- herbicidal effect, c: soybean (Glycine max) [29]: 0 (Herbicidal rate 5% or less (little effect))
- herbicidal effect, L: Polygonum blumei [30]: 5 (Herbicidal rate 90% or more (almost complete death))
- herbicidal effect, D: Digitaria adscendes [31]: 3 (Herbicidal rate 40% or more and less than 70%)
- herbicidal effect, J: Amaranthus retroflexus [32]: 5 (Herbicidal rate 90% or more (almost complete death))
- herbicidal effect, I: Ambrosia elatior [33]: 5 (Herbicidal rate 90% or more (almost complete death))
- herbicidal effect, E: Setaria viridis [34]: 0 (Herbicidal rate 5% or less (little effect))
- herbicidal effect, M: Stellaria media [35]: 4 (Herbicidal rate 70% or more and less than 90%)
- herbicidal effect, A: Echinochloa crus-galli [36]: 4 (Herbicidal rate 70% or more and less than 90%)
- herbicidal effect, B: Scirpus juncoides [37]: 4 (Herbicidal rate 70% or more and less than 90%)
- herbicidal effect, C: Monochoria vaginalis [38]: 4 (Herbicidal rate 70% or more and less than 90%)
